This note sets out measurements from patent US8372406B2, “Antitumoral and antiviral peptides” (priority 2004, dated 2013).

Experiment [1] has as its system R388D1 cells (lymphoid neoplasm of a mouse). In words: Clonogenic activity of tumor cells, interaction with cyclophosphamide. The class given is cell-based. As to conditions: clones counted after 7 days; for influence upon the cloning process (clonogenic activity): taken separately.
The subject of the next experiment is leucocytes of a human. In words: Interferon in vitro synthesis by human leucocytes (interferonogenic activity). Particulars: 0.01-10 microgram/ml, 24 hours, 6 donated blood samples. The class given is cell-based.
For another experiment, the system named is tumor cells. In words: In vitro effect of alloferon on tumor cell proliferation. The class given is cell-based. As to conditions: depending on concentration in cultural media.
Experiment [2] deals with mice tumor syngeneic graft. As to the kind of experiment: Growth of mice tumor syngeneic graft (alloferon research). As to conditions: mouse, in vivo.
The test system of experiment [3] is tumor cells of the syngeneic line R388D1. As to the kind of experiment: Antitumoral action on transplanted tumors in mice. The class given is in vivo, mouse (line DBA-1). The method, then: Each of laboratory mouse (line DBA-1) was subcutaneously injected by 3000 tumor cells of the syngeneic line R388D1. Next day mice were separated into 4 experimental groups. Mice of the first group have got only allostatin in a subcutaneous way in a dosage on 25 microgram at 4, 11 and 18 day after tumor cell transplantation. Second group has got a combination of cytostatic agents, cyclophosphamide (0.56 mg), doxorubicine (0.036 mg) and vincrystine (1.05 microgram) on the day of transplantation and after 7, 14 and 21 days. Third group has got allostatin and combination of cytostatic agents in the same way. Mice of the fourth group (control group) were injected by the solvent (0.9% NaCl) in the same days.

The next experiment has as its system R388D1-type tumor cells. As to the kind of experiment: In vitro influence on tumor cells proliferation (mass culture, cell counts). Type of experiment: cell-based, mouse. As to the method:
Object of instant experiments is the comparative analysis of influence of allostatin and alloferon on tumor cells proliferation. Effects of allostatin-1 and alloferon-1 in concentrations 0.001, 0.01, 0.1, 1, and 10 microgram per ml on proliferative activity in a mass culture of R388D1-type tumor cells were compared. 5000 cells suspended in 2 ml of […] medium were seed into wells of 24-socket plates. Medium used for the experiments comprises 5% fetal calf serum produced by firm “Biolot”. Preparations were introduced into wells in 0.2 ml of the sane medium immediately after inoculation, and, in control, equivalent amount of the medium was introduced without medications. Number of cells in 1 ml of incubating medium was estimated by means of hemocytometric camera. Average number of cells in 1 ml of incubating medium after 21, 44, 99 and 144 hours after beginning of the experiment was estimated on the base of 3 independent measurements.
FIG. 3 presents a typical view of allostatin and alloferon influence on growth dynamics of tumor cell population. As an evaluation indicator of anti-proliferative activity of the medication, the value of a growth multiplicity of the population for 90 hours was selected, which value is determined as a ratio of a number of cells in a well in the beginning and at the end of the incubation time. […]

On to `O=P1(N(CCCl)CCCl)NCCCO1` (stereo not drawn) [cyclophosphamide, reference compound], for which the “influence upon the cloning process (clonogenic activity)” value in experiment [1] is “Neither cyclophosphamide, nor allostatin taken separately, had a significant influence”.

Regarding “alloferon: Known immunomodulating peptide, SEQ ID NO 12; closest analogue, histidine and valine in positions 6 and 11 (HGVSGHGQHGVHG; Alloferon-1; listed as Calliphora vicina)”, in the experiment on leucocytes of a human, the “interferonogenic activity (allostatin vs alloferon)” value is “have no significant difference”. The “proliferation of tumor cells” value in the experiment on tumor cells is “may both inhibit (at high concentrations) and stimulate (at low concentrations)”. For the same molecule, in experiment [2], the “growth of mice tumor syngeneic graft” value was “depresses the growth”.

As to “allostatin: Linear 13-amino-acid peptide, SEQ ID NO 1; differs from alloferon-1 by tryptophan at position 6 and threonine at position 11 (HGVSGWGQHGTHG; Synthetic construct designed on the basis of the peptides SEQ ID NO 2-12 comparison)”, the “clonogenic activity of tumor cells” value in experiment [1] (allostatin in combination with cyclophosphamide) is “significantly decreased a clonogenic activity of tumor cells, proportionally to allostatin dose”. Moreover, the “influence upon the cloning process (clonogenic activity)” value in experiment [1] is recorded as “Neither cyclophosphamide, nor allostatin taken separately, had a significant influence”. In addition, the “mice with formed tumors during observation period” value in experiment [3] (allostatin 25 microgram s.c. (days 4, 11, 18) combined with cytostatics (cyclophosphamide, doxorubicine, vincrystine)) was 40%. Further, the tumor formation result in experiment [3] (allostatin or cytostatics given separately, DBA-1 mice, 3000 R388D1 cells subcutaneously) was “tumors were formed after some delays, and moderate part of animals has not exhibited tumor formation”. In addition, the antitumoral action result in experiment [3] (combination of allostatin and cytostatics) is “strong and in the most cases irreversible antitumoral action”. Moreover, the “interferonogenic activity (allostatin vs alloferon)” value in the experiment with leucocytes of a human was “have no significant difference”. Besides, the “growth of the tumor cell population” value with R388D1-type tumor cells (10 microgram/ml, over the observation period) is “almost completely stopped the growth”. The “anti-proliferative activity relative to alloferon (growth multiplicity of the population)” value in the experiment on R388D1-type tumor cells (concentrations of 0.001-1 mkg/ml, growth multiplicity for 90 hours) was 3-7 times.
